This data set in a line: Melting temperatures of 20mer nucleic acid duplexes in formamide-water mixtures. The format is physicochemical. As to conditions: for Melting Temperatures in Formamide: 1.5 μM single strand, 100 mM NaCl, 10 mM K-phosphate pH 7, 0.1 mM EDTA. The protocol:
A mismatch in 50% formamide in the DNA strand lowers the melting temperature of the duplex containing LNA-8 from 72 to 66 to 62° C.
As the results in the Tables show, useful melting temperatures are obtained when the oligonucleotides bound in duplex contain at least 15 nucleotide units that have 2′-OMe ribonucleotides as their building blocks. Comparably useful melting temperatures are obtained when the oligonucleotides contain locked nucleic acid (LNA) carbohydrate analogs, as described in [Koshkin et al., 1998]. The data in the Tables also makes clear that the binding between two complementary DNA strands of this length is not useful in 50% formamide, as it is below 30° C. at 50% formamide.

Regarding “DNA:DNA: 20mer DNA duplex of strand-1 5′-CTTCAGGTACTGAGTCAAGC-3′ (SEQ ID NO 3) and strand-2 (SEQ ID NO 4) (chain 1 CTTCAGGTACTGAGTCAAGC; chain 2 GCTTGACTCAGTACCTGAAG; DNA, backbone and methylation of C not given here)”, the “Tm (Stability of Duplexes in Formamide and Water)” value is 61 °C (0 % formamide (Table 3)); 44 °C (25 % formamide (Table 3)); 28 °C (50 % formamide (Table 3)); under 20 °C (70 % formamide (Table 3)); at most 20 °C (70 % formamide (Table 3), listed as model 20 mer). Also, the “Melting Temperatures in Formamide” value was 62 °C (0 percent formamide), 46 °C (25 percent formamide) and 29 °C (50 percent formamide).

On to “RNA:RNA: 20mer RNA duplex 5′-CUUCAGGUACUGAGUCAAGC-3′ (SEQ ID NO 1) with 3′-GAAGUCCAUGACUCAGUUCG-5′ (SEQ ID NO 2) (chain 2 GCUUGACUCAGUACCUGAAG; RNA, backbone not given here)”, for which the “Tm (Stability of Duplexes in Formamide and Water)” value reads like this: (0 % formamide (Table 3)) 73 °C; (25 % formamide (Table 3)) 60 °C; (50 % formamide (Table 3)) 48 °C; (70 % formamide (Table 3)) 40 °C; (90 % formamide (Table 3)) under 25 °C. Moreover, the “Melting Temperatures in Formamide” value is, setting by setting: (0 percent formamide) 73 °C; (25 percent formamide) 61 °C; (50 percent formamide) 49 °C.

Values taken from US20110117554A1, “Formamide-containing mixtures for detecting nucleic acids” (priority 2009, published 2011).
